How the values were obtained:
Type in all cases: cell-based
[1] = test system: NCIH23; assay: Test A: Cytostatic Cell Culture Assay (GI50), NCIH23; conditions: Homo sapiens, NCI-H23, 120 h; NCIH23 cells, 5 days, SRB; read-out: G150 Lung NCIH23
From the text: (§1) Test A: Cytostatic Cell Culture Assay (GI50)
(§2) This assay is based on quantification of cell counts by a calorimetric detection of the cell associated proteins. The assay relies on the ability of sulforhodamine B (SRB) to bind to protein components of cells that have been fixed to tissue-culture plates by trichloroacetic acid (TCA). SRB is a bright-pink aminoxanthene dye with two sulfonic groups that bind to basic amino-acid residues under mild acidic conditions, and dissociate under basic conditions. As the binding of SRB is stoichiometric, the amount of dye extracted from stained cells is directly proportional to the cell mass.
(§3) Cell lines: All cell lines are obtained from ATCC (Manassas, Va.). Cultivation media containing Glutanax, and trypsin are purchased from Invitrogen (Carlsbad, Calif.). Doxorubicin, Clofarabine, TCA and SRB are from Sigma-Aldrich (St. Louis, Mo.). Gemcitabine is obtained from Moravek Biochemicals (Brea, Calif.)
(§4) • 1. Trypsinize the sub-confluent cells, count them, and adjust the cell concentrations according to the cell counts listed in Table 1. • 2. Distribute the cells into the 96-well plates in 150 μL of media. Incubate the plates overnight in humidified CO2 incubator at 37° C. • 3. Fix one plate of each cell line with TCA. Discard the cultivation media from the plates by flicking them gently and add 100 μL cold 10% (vol/vol) TCA to each well. Incubate the plates at 4 degree refrigerator for 1 hour. Discard TCA from the plates by flicking them gently. Rinse plates four times in a washing basin containing tap water. Store the plates at room temperature. These plates represent cell counts on day zero. • 4. Prepare a set of medium solutions containing various concentrations of tested compounds by making 5-fold serial dilutions in 96-well plate. Add 50 μL of the diluted compounds per well. Include controls with untreated cells and cells treated with doxorubicin, clofarabine and gemcitabine. • 5. Incubate the plates for 5 days at 37° C. • 6. Fix the plates with TCA. Discard the cultivation media from the plates by flicking them gently and add 100 μL cold 10% (vol/vol) TCA to each well. Incubate the plates at 4 degree refrigerator for 1 hour. Discard TCA from the plates by flicking them gently. Rinse plates four times in a washing basin containing tap water. • 7. Remove excess water by tapping the plates face down, gently on a paper towel. Allow the plates to air-dry at room temperature. • 8. Add 100 μL of 0.057% SRB solution in 1% (vol/vol) acetic acid to each well of the plates fixed with TCA on day zero and five. Leave at room temperature for 30 minutes. • 9. Flick the plates gently to discard SRB. Rinse the plates four times with 1% (vol/vol) Acetic Acid. • 10. Store the plates at 370 incubator to facilitate faster drying. • 11. Once the plates are completely dry, add 200 μL of 10 mM Tris base solution (pH 10.5) to each well. Leave at room temperature for 30 minutes for SRB to solubilize. • 12. Measure the OD at 500 nm in a microplate reader. • 13. Calculate the percentage of cell-growth inhibition using the next formula: % of control cell growth=100×(ODsample−mean ODday0)/(ODneg control−mean ODday0)
(§5) For GI50 determination, plot a dose-response curves between the compound concentration and percent of growth inhibition. GI50 values can be derived by fitting dose-response curves using sigmoidal dose response equation.

[2] = test system: HCT116; assay: Test A: Cytostatic Cell Culture Assay (GI50), HCT116; conditions: Homo sapiens, HCT-116, 120 h; HCT116 cells, 5 days, SRB; read-out: G150 Colon HCT116
From the text: as §1, §2, §3, §4, §5

[3] = test system: Hs578; assay: Test A: Cytostatic Cell Culture Assay (GI50), Hs578; conditions: 120 h; Hs578 cells, 5 days, SRB; read-out: G150 Breast Hs578
From the text: as §1, §2, §3, §4, §5

[4] = test system: Human T-lymphoid cell line CCRF-CEM; assay: Cell cycle distribution in human T-lymphoid cells (propidium iodide, flow cytometry); conditions: 72 hours; for Relative change in cell cycle phase compared to untreated control, G1 / Relative change in cell cycle phase compared to untreated control, G2/M / Relative change in cell cycle phase compared to untreated control, S: concentration corresponding to CC50, untreated control = 1
Protocol: Effects of the Compounds on Cell Cycle Distribution in Human T-Lymphoid Cells
Human T-lymphoid cell line CCRF-CEM is treated with tested compounds for 72 hours at the concentration corresponding to the CC50 value of each compound. At the end of incubation, cells are harvested by centrifugation, washed, and fixed in ethanol. Fixed cells are stained with propidium iodide in a buffer containing RNaseA and the cell cycle distribution analysis is performed by flow cytometry using BD FACSAria instrument. Data are processed using BD FACSDiva software v4.1 and presented as a percentage of analyzed cell population in Phase G1, S, and G2/M. Cell cycle distribution is determined in parallel for untreated and treated cells and relative change for each cell cycle phase is calculated.
The data represent changes in the frequency of each cell cycle phase in treated cells relative to untreated control (the relative fraction of each analyzed cell cycle phase in untreated control has the value of 1).
Primary data are shown in Table 3, with values representing the percentage distribution of each cell cycle phase in the total cell population.

[5] = test system: A549; assay: Test A: Cytostatic Cell Culture Assay (GI50), A549; conditions: Homo sapiens, 120 h; A549 cells, 5 days, SRB; read-out: G150 Lung A549
From the text: as §1, §2, §3, §4, §5

[6] = test system: Du145; assay: Test A: Cytostatic Cell Culture Assay (GI50), Du145; conditions: Homo sapiens, DU-145, 120 h; Du145 cells, 5 days, SRB; read-out: G150 Prostate Du145
From the text: as §1, §2, §3, §4, §5

[7] = test system: PC3; assay: Test A: Cytostatic Cell Culture Assay (GI50), PC3; conditions: Homo sapiens, PC-3, 120 h; PC3 cells, 5 days, SRB; read-out: G150 Prostate PC3
From the text: as §1, §2, §3, §4, §5

[8] = test system: HCT15; assay: Test A: Cytostatic Cell Culture Assay (GI50), HCT15; conditions: Homo sapiens, HCT-15, 120 h; HCT15 cells, 5 days, SRB; read-out: G150 Colon HCT15
From the text: as §1, §2, §3, §4, §5

Row | Structure (SMILES) | IC50 [1] [nM] | IC50 [2] [nM] | IC50 [3] [nM] | Relative change in cell cycle phase compared to untreated control, G1 [4] | Relative change in cell cycle phase compared to untreated control, G2/M [4] | Relative change in cell cycle phase compared to untreated control, S [4] | IC50 [5] [nM] | IC50 [6] [nM] | IC50 [7] [nM] | IC50 [8] [nM] | also measured
1 | OC[C@H]1O[C@@H](n2cc(F)c3c(-c4ccco4)ncnc32)[C@H](O)[C@@H]1O [Example 20, 5-Fluoro-4-(furan-2-yl)-7-(β-D-ribofuranosyl)-7H-pyrrolo[2,3-d]pyrimidine] | 4300 | 39 | 175 | 0.61 | 2.00 | 1.06 | 109 | 5 | 75 | 57 | G1 % ([4]; 1.5 μM, replicate 1): 22.32%; G2/M % ([4]; 1.5 μM, replicate 1): 30.19%; S % ([4]; 1.5 μM, replicate 1): 47.49%; G1 % ([4]; 1.5 μM, replicate 2): 28.81%; G2/M % ([4]; 1.5 μM, replicate 2): 25.24%; S % ([4]; 1.5 μM, replicate 2): 45.95%
2 | OC[C@H]1O[C@@H](n2cc(F)c3c(-c4cccs4)ncnc32)[C@H](O)[C@@H]1O [Example 21] | 4700 | 9 | 132 | 0.74 | 1.38 | 1.12 | 61 | 9 | 83 | 18 | G1 % ([4]; 0.3 μM, replicate 1): 30.83%; G2/M % ([4]; 0.3 μM, replicate 1): 22.80%; S % ([4]; 0.3 μM, replicate 1): 46.37%; G1 % ([4]; 0.3 μM, replicate 2): 32.73%; G2/M % ([4]; 0.3 μM, replicate 2): 23.53%; S % ([4]; 0.3 μM, replicate 2): 43.74%
3 | OC[C@H]1O[C@@H](n2cc(F)c3c(-c4c[nH]cn4)ncnc32)[C@H](O)[C@@H]1O [Example 26, 5-Fluoro-4-(1H-imidazol-4-yl)-7-(β-D-ribofuranosyl)-7H-pyrrolo[2,3-d]pyrimidine] | 7620 | > 20000 | 2110 |  |  |  | > 20000 | 887 | 2110 | 3590 | 
4 | OCc1ncnc2c1ccn2[C@@H]1O[C@H](CO)[C@@H](O)[C@H]1O [Example 11, 4-Hydroxymethyl-7-(β-D-ribofuranosyl)-7H-pyrrolo[2,3-d]pyrimidine] | 28 | 447 | 53 |  |  |  | 252 | 30 | 52 | 30 | 
5 | OC[C@H]1O[C@@H](n2cc(F)c3c(-c4ccsc4)ncnc32)[C@H](O)[C@@H]1O [Example 24, 5-Fluoro-7-(β-D-ribofuranosyl)-4-(thiophen-3-yl)-7H-pyrrolo[2,3-d]pyrimidine] | 2950 | 145 | 813 |  |  |  | 379 | 66 | 105 | 179 | 
6 | OC[C@H]1O[C@@H](n2ccc3c(-c4ccsc4)ncnc32)[C@H](O)[C@@H]1O [Example 13, 7-(β-D-Ribofuranosyl)-4-(thiophen-3-yl)-7H-pyrrolo[2,3-d]pyrimidine] | 4240 | 216 | 711 |  |  |  | 627 | 32 | 92 | 98 | 
7 | OC[C@H]1O[C@@H](n2cc(Cl)c3c(-c4ccsc4)ncnc32)[C@H](O)[C@@H]1O [Example 32, 5-Chloro-7-(β-D-ribofuranosyl)-4-(thiophen-3-yl)-7H-pyrrolo[2,3-d]pyrimidine] | 4540 | 101 | 109 |  |  |  | 378 | 18 | 118 | 148 | 
8 | OC[C@H]1O[C@@H](n2ccc3c(-c4c[nH]cn4)ncnc32)[C@H](O)[C@@H]1O [Example 9, 4-(1H-Imidazol-4-yl)-7-(β-D-ribofuranosyl)-7H-pyrrolo[2,3-d]pyrimidine] | 2490 | 3690 | 1940 |  |  |  | 2590 | 94 | 194 | 224 | 
9 | OC[C@H]1O[C@@H](n2ccc3c(-c4ccco4)ncnc32)[C@H](O)[C@@H]1O [Example 5, 4-(Furan-2-yl)-7-(β-D-ribofuranosyl)-7H-pyrrolo[2,3-d]pyrimidine] | 4200 | 78 | 49 | 0.57 | 1.19 | 1.38 | 88 | 7 | 91 | 20 | G1 % ([4]; 0.3 μM, replicate 1): 26.14%; G2/M % ([4]; 0.3 μM, replicate 1): 11.89%; S % ([4]; 0.3 μM, replicate 1): 61.98%; G1 % ([4]; 0.3 μM, replicate 2): 23.61%; G2/M % ([4]; 0.3 μM, replicate 2): 16.41%; S % ([4]; 0.3 μM, replicate 2): 59.99%
10 | OC[C@H]1O[C@@H](n2ccc3c(-c4cccs4)ncnc32)[C@H](O)[C@@H]1O [Example 6, 7-(β-D-Ribofuranosyl)-4-(thiophen-2-yl)-7H-pyrrolo[2,3-d]pyrimidine] | 4100 | 49 | 101 | 0.52 | 1.54 | 1.34 | 45 | 9 | 67 | 78 | G1 % ([4]; 0.3 μM, replicate 1): 30.82%; G2/M % ([4]; 0.3 μM, replicate 1): 14.53%; S % ([4]; 0.3 μM, replicate 1): 54.65%; G1 % ([4]; 0.3 μM, replicate 2): 14.66%; G2/M % ([4]; 0.3 μM, replicate 2): 22.05%; S % ([4]; 0.3 μM, replicate 2): 63.29%
11 | OC[C@H]1O[C@@H](n2cc(Cl)c3c(-c4ccccc4)ncnc32)[C@H](O)[C@@H]1O [Example 28, 5-Chloro-4-phenyl-7-(β-D-ribofuranosyl)-7H-pyrrolo[2,3-d]pyrimidine] | 5020 | 1420 | 13200 |  |  |  | 2470 | 138 | 263 | 290 | 
12 | OC[C@H]1O[C@@H](n2ccc3c(-c4ccoc4)ncnc32)[C@H](O)[C@@H]1O [Example 12, 4-(Furan-3-yl)-7-(β-D-ribofuranosyl)-7H-pyrrolo[2,3-d]pyrimidine] | 697 | 92 | 264 |  |  |  | 73 | 36 | 150 | 86 | 

Reference: US8093226B2, “Cytostatic 7-deazapurine nucleosides” (Institute of Organic Chemistry and Biochemistry of the …, priority 2008, dated 2012)
